For the assay, the target named is T1, human GR (Homo sapiens, UniProt P04150).
T1 construct: naturally expresses the human GR; endogenous in cells
T1 sequence (P04150 1-777): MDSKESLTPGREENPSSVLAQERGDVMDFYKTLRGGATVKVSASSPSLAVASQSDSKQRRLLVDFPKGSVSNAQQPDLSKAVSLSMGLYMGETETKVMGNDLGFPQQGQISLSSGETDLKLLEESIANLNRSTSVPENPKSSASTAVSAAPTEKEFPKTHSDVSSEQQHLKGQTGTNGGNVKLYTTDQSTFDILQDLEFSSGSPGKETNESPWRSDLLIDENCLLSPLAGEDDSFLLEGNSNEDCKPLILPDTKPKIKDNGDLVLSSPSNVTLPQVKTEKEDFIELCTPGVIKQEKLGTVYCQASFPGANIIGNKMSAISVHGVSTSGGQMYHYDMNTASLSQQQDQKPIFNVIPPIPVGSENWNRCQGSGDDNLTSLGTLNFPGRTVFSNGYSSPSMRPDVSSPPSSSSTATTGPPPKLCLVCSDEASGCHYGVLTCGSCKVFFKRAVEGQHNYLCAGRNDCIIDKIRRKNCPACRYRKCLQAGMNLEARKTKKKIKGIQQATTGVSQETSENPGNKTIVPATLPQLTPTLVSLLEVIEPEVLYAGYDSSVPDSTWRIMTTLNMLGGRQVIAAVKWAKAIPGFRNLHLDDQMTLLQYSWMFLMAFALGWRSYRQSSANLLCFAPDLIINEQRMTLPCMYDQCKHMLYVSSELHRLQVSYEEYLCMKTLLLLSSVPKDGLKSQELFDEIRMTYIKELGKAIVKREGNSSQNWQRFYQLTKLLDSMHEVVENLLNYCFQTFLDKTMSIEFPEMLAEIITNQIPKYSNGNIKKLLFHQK
In words: Transrepression assay (GITAR), TNFα-β-lactamase reporter in U937 cells. The format is cell-based. The settings on record: for EC50: IP = inflection point; for Emax: U-937, U937 cells. The gist of the method: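 U937 cells stably carrying TNFα promoter–β-lactamase, endogenous GR, preincubated with compound 30–45 min at 37° C., then stimulated with 5 ng/ml PMA plus 100 ng/ml LPS for ~18 h. CCF2-AM read-out; repression by 100 nM dexamethasone set as 100%.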

[1] abbreviates: activity repressed by 100 nM dexamethasone alone set as 100%.

SMILES strings stand for the structures.

23 compounds from patent US20120214847A1, “2-[1-PHENYL-5-HYDROXY-4a-SUBSTITUTED-HEXAHYDROCYCLOPENTA[F]INDAZOL-5-YL]ETHYL PHENYL DERIVATIVES AS GLUCOCORTICOID RECEPTOR LIGANDS” (Merck Sharp & Dohme Corp., priority 2009, published 2012) can be followed below.

A word on the EC50: it is the concentration needed to bring the measured effect to its halfway point. As a reminder, the Emax is the size of the effect at its maximum, as opposed to the concentration needed. In turn, `NC(=O)[C@H](F)c1c(F)cccc1CC[C@]1(O)CCC2=Cc3c(cnn3-c3ccc(F)cc3)C[C@@]21C1CC1` [Example 57, (2R)-2-(2-{2-[(4aR,5R)-4a-Cyclopropyl-1-(4-fluorophenyl)-5-hydroxy-1,4,4a,5,6,7-hexahydrocyclopenta[f]indazol-5-yl]ethyl}-6-fluorophenyl)-2-fluoroethanamide] returned a concentration for a half-maximal effect (EC50) (U937 cells) of 0.106 µM. Under setting [1], this compound returned a maximum response (Emax) of 86%.

The compound `N#Cc1c(F)cccc1CC[C@]1(O)CCC2=Cc3c(cnn3-c3ccccc3)C[C@@]21C1CC1` [Example 28, 2-{2-[(4aR,5R)-4a-Cyclopropyl-5-hydroxy-1-phenyl-1,4,4a,5,6,7-hexahydrocyclopenta[f]indazol-5-yl]ethyl}-6-fluorobenzonitrile] gave a half-maximal effective concentration (EC50) (U937 cells) of 0.122 µM. Under setting [1], this compound registered an Emax of 88%.

For `CC[C@]12Cc3cnn(-c4ccc(F)cc4)c3C=C1CC[C@@]2(O)CC(O)c1ncccc1Cl` (stereo partly drawn) [Example 70, (4aS,5R)-5-[2-(3-Chloropyridin-2-yl)-2-hydroxyethyl]-4a-ethyl-1-(4-fluorophenyl)-1,4,4a,5,6,7-hexahydrocyclopenta[f]indazol-5-ol], where the note is “U937 cells”, the concentration giving a half-maximal response (EC50) worked out at 0.142 µM. Also, the Emax under setting [1] is 79%.

Consider `NC(=O)Cc1c(F)cccc1CC[C@]1(O)CCC2=Cc3c(cnn3-c3ccc(F)cc3)C[C@@]21C1CC1` [Example 61, 2-(2-{2-[(4aR,5R)-4a-Cyclopropyl-1-(4-fluorophenyl)-5-hydroxy-1,4,4a,5,6,7-hexahydrocyclopenta[f]indazol-5-yl]ethyl}-6-fluorophenyl)acetamide], for which the EC50 (U937 cells) came out at 0.016 µM. Further, the maximum response (Emax) under setting [1] was 72%.

`CC[C@]12Cc3cnn(-c4ccc(F)cc4)c3C=C1CC[C@@]2(O)CCc1nccc(C2CC2)c1C(=O)OC` [Example 41, Methyl 4-cyclopropyl-2-{2-[(4aS,5R)-4a-ethyl-1-(4-fluorophenyl)-5-hydroxy-1,4,4a,5,6,7-hexahydrocyclopenta[f]indazol-5-yl]ethyl}pyridine-3-carboxylate] gave an EC50 (U937 cells) of 0.262 µM. Moreover, the maximum response (Emax) under setting [1] came out at 79%.

`CC[C@]12Cc3cnn(-c4ccc(F)cc4)c3C=C1CC[C@@]2(O)CCc1nccc(OC)c1CC(N)=O` [Example 64, 2-(2-{2-[(4aS,5R)-4a-Ethyl-1-(4-fluorophenyl)-5-hydroxy-1,4,4a,5,6,7-hexahydrocyclopenta[f]indazol-5-yl]ethyl}-4-methoxypyridin-3-yl)acetamide] registered a concentration for a half-maximal effect (EC50) (U937 cells) of 0.072 µM. Moreover, under setting [1], the maximal response (Emax) was found to be 77%.

`O[C@@]1(CCc2cc(C(F)(F)F)ccn2)CCC2=Cc3c(cnn3-c3ccc(F)cc3)C[C@@]21C1CC1` [Example 32, (4aR,5R)-4a-Cyclopropyl-1-(4-fluorophenyl)-5-{2-[4-(trifluoromethyl)pyridin-2-yl]ethyl}-1,4,4a,5,6,7-hexahydrocyclopenta[f]indazol-5-ol] displayed a half-maximal effective concentration (EC50) (U937 cells) of 0.266 µM. For the same compound, the maximum response (Emax) under setting [1] is 83%.

For the setting “U937 cells”, `CC[C@]12Cc3cnn(-c4ccc(F)cc4)c3C=C1CC[C@@]2(O)CCc1ncccc1S(=O)(=O)C(C)C` [Example 62, (4aS,5R)-4a-Ethyl-1-(4-fluorophenyl)-5-{2-[3-(propan-2-ylsulfonyl)pyridin-2-yl]ethyl}-1,4,4a,5,6,7-hexahydrocyclopenta[f]indazol-5-ol] displayed a half-maximal effective concentration (EC50) of 0.012 µM. Under setting [1], the maximal response (Emax) is 85%.

Under “U937 cells”, `NC(=O)Cc1ccccc1CC[C@]1(O)CCC2=Cc3c(cnn3-c3ccc(F)cc3)C[C@@]21C1CC1` [Example 56, 2-(2-{2-[(4aR,5S)-4a-Cyclopropyl-1-(4-fluorophenyl)-5-hydroxy-1,4,4a,5,6,7-hexahydrocyclopenta[f]indazol-5-yl]ethyl}phenyl)acetamide] gave a concentration giving a half-maximal response (EC50) of 0.095 µM. Besides, the Emax under setting [1] is 78%.

Where the note is “U937 cells”, `NC(=O)c1ccccc1CC[C@]1(O)CCC2=Cc3c(cnn3-c3ccc(F)cc3)C[C@@]21C1CC1` [Example 23, 2-{2-[(4aR,5R)-4a-Cyclopropyl-1-(4-fluorophenyl)-5-hydroxy-1,4,4a,5,6,7-hexahydrocyclopenta[f]indazol-5-yl]ethyl}benzamide] showed a 50% effective concentration (EC50) of 0.022 µM. This compound also showed an Emax under setting [1] of 77%.

In the case of `CC[C@]12Cc3cnn(-c4ccccc4)c3C=C1CC[C@@]2(O)CCc1ccc(F)cc1C(N)=O` [Example 6], the EC50 (U937 cells) was 0.143 µM. Moreover, the maximal response (Emax) under setting [1] was 75%.

As for `NC(=O)c1c(C(F)(F)F)ccnc1CC[C@]1(O)CCC2=Cc3c(cnn3-c3ccc(F)cc3)C[C@@]21C1CC1` [Example 55, 2-{2-[(4aR,5R)-4a-Cyclopropyl-1-(4-fluorophenyl)-5-hydroxy-1,4,4a,5,6,7-hexahydrocyclopenta[f]indaozol-5-yl]ethyl}-4-(trifluoromethyl)pyridine-3-carboxamide], the EC50 (U937 cells) worked out at 0.002 µM. Under setting [1], this compound showed an Emax of 87%.

As for `CC[C@]12Cc3cnn(-c4cccnc4)c3C=C1CC[C@@]2(O)CCc1ccc(F)cc1C#N` [Example 9, 2-{2-[(4aS,5R)-4a-Ethyl-5-hydroxy-1-(pyridin-3-yl)-1,4,4a,5,6,7-hexahydrocyclopenta[f]indazol-5-yl]ethyl}-5-fluorobenzonitrile], the midpoint of the response (U937 cells), the EC50, lay at 0.12 µM. This compound returned a maximum response (Emax) under setting [1] of 71%.

Compound `CC[C@]12Cc3cnn(-c4cccnc4)c3C=C1CC[C@@]2(O)CCc1ccccc1C(N)=O` [Example 13, 2-{2-[(4aS,5R)-4a-Ethyl-5-hydroxy-1-(pyridin-3-yl)-1,4,4a,5,6,7-hexahydrocyclopenta[f]indazol-5-yl]ethyl}benzamide] came in with a 50% effective concentration (EC50) (U937 cells) of 0.163 µM. The maximum response (Emax) under setting [1] stood at 76%.

Take `CCS(=O)(=O)c1ccccc1CC[C@]1(O)CCC2=Cc3c(cnn3-c3ccc(F)cc3)C[C@@]21C1CC1` [Example 59, (4aR,5R)-4a-Cyclopropyl-5-{2-[2-(ethylsulfonyl)phenyl]ethyl}-1-(4-fluorophenyl)-1,4,4a,5,6,7-hexahydrocyclopenta[f]indazol-5-ol]: the half-maximal effective concentration (EC50) (U937 cells) was 0.074 µM. In addition, under setting [1], the Emax worked out at 88%.

Take `CC[C@]12Cc3cnn(-c4ccccc4)c3C=C1CC[C@@]2(O)CC(O)c1ccccn1` (single isomer, unassigned) [Example 67a]: the concentration for a half-maximal effect (EC50) (U937 cells) amounted to 0.217 µM. Further, the maximum response (Emax) under setting [1] amounted to 54%.

In turn, `CC[C@]12Cc3cnn(-c4ccc(F)cc4)c3C=C1CC[C@@]2(O)CCc1ccccn1` [Example 16, (4aS,5R)-4a-Ethyl-1-(4-fluorophenyl)-5-[2-(pyridin-2-yl)ethyl]-1,4,4a,5,6,7-hexahydrocyclopenta[f]indazol-5-ol] had an EC50 (U937 cells) of 0.093 µM. Also, the Emax under setting [1] is 79%.

In turn, `CC[C@]12Cc3cnn(-c4ccc(F)cc4)c3C=C1CC[C@@]2(O)CC(O)c1ncccc1F` (stereo partly drawn) [Example 77, (4aS,5R)-4a-Ethyl-1-(4-fluorophenyl)-5-[2-(3-fluoropyridin-2-yl)-2-hydroxyethyl]-1,4,4a,5,6,7-hexahydrocyclopenta[f]indazol-5-ol] came in with a concentration giving a half-maximal response (EC50) (U937 cells) of 0.162 µM. Also, the “Transrepression U937 Cells GITAR Emax (%)” value (U937 cells, activity repressed by 100 nM dexamethasone alone set as 100%) was determined as 60%.

For the compound `CC[C@]12Cc3cnn(-c4ccc(F)cc4)c3C=C1CC[C@@]2(O)CCc1ncccc1F` [Example 17, (4aS,5R)-4a-Ethyl-1-(4-fluorophenyl)-5-[2-(3-fluoropyridin-2-yl)ethyl]-1,4,4a,5,6,7-hexahydrocyclopenta[f]indazol-5-ol], the EC50 (U937 cells) turned out to be 0.044 µM. The compound further came in with an Emax under setting [1] of 89%.

Under “U937 cells”, `CC[C@]12Cc3cnn(-c4ccc(F)cc4)c3C=C1CC[C@@]2(O)CC(O)c1ncccc1F` (stereo partly drawn) [Example 76, (4aS,5R)-4a-Ethyl-1-(4-fluorophenyl)-5-[2-(3-fluoropyridin-2-yl)-2-hydroxyethyl]-1,4,4a,5,6,7-hexahydrocyclopenta[f]indazol-5-ol] gave an EC50 of 0.275 µM. The same compound showed an Emax under setting [1] of 64%.

As to `CC[C@]12Cc3cnn(-c4ccc(F)cc4)c3C=C1CC[C@@]2(O)CC(O)c1ccc(F)cn1` (single isomer, unassigned) [Example 69a], the response (U937 cells) was half-maximal at 0.111 µM (EC50). Moreover, the Emax under setting [1] is 74%.

In turn, `NC(=O)c1c(C2CC2)ccnc1CC[C@]1(O)CCC2=Cc3c(cnn3-c3ccc(F)cc3)C[C@@]21C1CC1` [Example 49, 4-Cyclopropyl-2-{2-[(4aR,5R)-4a-cyclopropyl-1-(4-fluorophenyl)-5-hydroxy-1,4,4a,5,6,7-hexahydrocyclopenta[f]indazol-5-yl]ethyl}pyridine-3-carboxamide] yielded an EC50 (U937 cells) of 0.012 µM. Besides, the Emax under setting [1] stood at 78%.

The compound `NC(=O)c1cc(F)cnc1CC[C@]1(O)CCC2=Cc3c(cnn3-c3ccc(F)cc3)C[C@@]21C1CC1` [Example 4, 2-{2-[(4aR,5R)-4a-Cyclopropyl-1-(4-fluorophenyl)-5-hydroxy-1,4,4a,5,6,7-hexahydrocyclopenta[f]indazol-5-yl]ethyl}-5-fluoropyridine-3-carboxamide] returned a concentration giving a half-maximal response (EC50) (U937 cells) of 0.083 µM. The maximum response (Emax) under setting [1] is 71%.
